Test results reported in PMC4749642, “Evaluation of anticonvulsant and antinociceptive properties of new N-Mannich bases derived from pyrrolidine-2,5-dione and 3-methylpyrrolidine-2,5-dione” (Naunyn-Schmiedeberg's Archives of Pharmacology, 2015).
Where “and” joins values, the source holds several entries; their conditions need not be identical. Equal values may be shown once. Marks after values point to notes of the source that are not given here.

Columns and labels:
V. harveyi BB7 [1] = test: Vibrio harveyi mutagenicity assay, BB7 strain; conditions: 40 ng/ml; for Mutagenicity BB7 M.I. (mutagenic index): positive assay when M.I. ≥ 2
Procedure: (§1) Two V. harveyi strains were used in the experiments: wild-type BB7 and genetically modified BB7XM (the UV-hypersensitive strain bearing plasmid pAB91273), which were described previously by Czyż et al. ([2000]).
(§2) Mutagenicity assay was performed as described previously (Czyż et al. [2000]). All experiments were carried out in triplicate and the results were expressed as mutagenic index (M.I. = the number of revertant colonies induced in the tested sample/the number of spontaneous revertants in the negative control) (Gulluce et al. [2010]).

V. harveyi BB7 [2] = test: Vibrio harveyi antimutagenicity assay (vs NQNO), BB7 strain; format: cell-based; conditions: for inhibition of NQNO-induced mutagenicity in BB7 strain (in words): NQNO 40 ng/ml; for Antimutagenicity BB7 number of revertants Mean ± SD: test compound plus NQNO 40 ng/ml (NQNO line: mutagen only); for Antimutagenicity BB7 Inhib. (%) of mutagenicity: test compound plus NQNO 40 ng/ml, 25–40 % moderate, 40 % or more strong
Procedure: as §1
(§3) Antimutagenicity assay was performed according to previously described procedures (Czyż et al. [2002]; Pękala et al. [2013]). […] This was calculated as follows: Inhibition (%) = 100 − [(R1/R2) × 100], where R1 is the number of revertants per plate induced by test compound plus mutagen and R2 is the number of revertants in the plate containing only the mutagen (Słoczyńska et al. [2010]). No antimutagenic effect was considered when the inhibition was less than 25 %; a moderate effect for an inhibition value between 25 and 40 % and a strong antimutagenicity were recorded for inhibition higher than 40 % (Gulluce et al. [2010]).

V. harveyi BB7XM [3] = test: Vibrio harveyi antimutagenicity assay (vs NQNO), BB7XM strain; format: cell-based; conditions: for Antimutagenicity BB7XM number of revertants Mean ± SD: test compound plus NQNO 40 ng/ml (NQNO line: mutagen only); for Antimutagenicity BB7XM Inhib. (%) of mutagenicity: test compound plus NQNO 40 ng/ml, 25–40 % moderate, 40 % or more strong
Procedure: as §1, §3

mice [4] = test: Spontaneous locomotor activity (photoresistor actometers); format: in vivo, mouse
Procedure: (§4) Male CD-1 mice weighing 18–24 g were used in the in vivo experiment. The animals were kept at room temperature of 20 ± 2 °C under standard conditions (12:12 h light-dark cycle, standard pellet diet, tap water). All the experiments were performed between 8 a.m. and 3 p.m. For the experiments, the animals were selected in a random way and sacrificed by cervical dislocation immediately after the assay. The experimental protocol was approved by the Local Ethics Commission for Animal Experiments of the Jagiellonian University in Cracow, and all experiences were conducted in accordance with the 1996 NIH Guide for the Care and Use of Laboratory Animals.
(§5) The tested compounds 12 (N-[{4-(3,4-dichlorophenyl)-piperazin-1-yl}-methyl]-3-methylpyrrolidine-2,5-dione), 13 (N-[{4-(3-trifluoromethylphenyl)-piperazin-1-yl}-methyl]-3-methylpyrrolidine-2,5-dione), 15 (N-[{4-(3-methylphenyl)-piperazin-1-yl}-methyl]-3-methylpyrrolidine-2,5-dione), 23 (N-[{4-(3,4-dichlorophenyl)-piperazin-1-yl}-methyl]-pyrrolidine-2,5-dione), and 24 (N-[{4-(3-trifluoromethylphenyl)-piperazin-1-yl}-methyl]-pyrrolidine-2,5-dione) were synthesized at the Department of Medicinal Chemistry, Jagiellonian University Medical College in Cracow (Scheme 1). The synthesis of the investigated compounds was described earlier (Rybka et al. [2014]). The investigated compounds were suspended in a 0.5 % aqueous solution of methylcellulose (Loba Chemie, Germany). Lacosamide (Vimpat, UCB Pharma, Belgium), pilocarpine (Sigma-Aldrich, Germany), scopolamine butylbromide (Sigma-Aldrich, Germany), and formaldehyde (POCh, Poland) were dissolved in distilled water. Agents were administered intraperitoneally (i.p.) at a volume of 0.1 ml/10 g. Control animals were administered an equivalent volume of vehicle (0.5 % aqueous solution of methylcellulose) via the same route as the test compounds.
Locomotor activity was measured with photoresistor actometers (Ugo Basile, Italy) connected to a counter for the recording of light-beam interruptions. Mice were individually placed in plastic cages for 30 min habituation period, and then the number of light-beam crossings was counted for a 30-min session. The cages were cleaned up with 70 % ethanol after each mouse.

mice [5] = test: Electroconvulsive threshold test (MEST test); format: in vivo, mouse
mice [6] = test: Formalin hind paw test; format: in vivo, mouse; conditions: dose 30 mg/kg i.p.; for reduction of the duration of the licking response, first (neurogenic) phase: 0–5 min after 5 % formalin; for antinociceptive effect (reduction of licking response), second (late) phase: 15–30 min after 5 % formalin
Procedure: as §4, §5
Antinociceptive activity in the formalin hind paw test was examined according to Laughlin et al. ([2002]). Twenty microliters of a 5 % formalin solution was injected intraplantarly (i.pl.) into the right hind paw of the mouse. […] Time (in seconds) spent on licking or biting the injected hind paw in selected intervals, 0–5 and 15–30 min, was measured in each experimental group and was an indicator of nociceptive behavior. In mice, intraplantarly injection of diluted formalin produces a biphasic nocifensive behavioral response (i.e., licking or biting the injected hind paw). The acute nociceptive phase lasts for the first 5 min, whereas the second inflammatory phase occurs between 15 and 30 min after formalin injection.

mice [7] = test: Pilocarpine-induced seizure test; format: in vivo, mouse
Procedure: as §4, §5
The experimental procedure was originally described by Turski et al. ([1987]). Seizures were induced in mice by i.p. injection of pilocarpine at a dose of 400 mg/kg. Forty-five minutes before pilocarpine, animals were also pretreated with scopolamine butylbromide (1 mg/kg, i.p.) to reduce peripheral autonomic side effects and masticatory and stereotyped movements (Kowalczyk et al. [2014]). Direct observation was performed for 60 min to monitor the latency time to the onset of the limbic seizures, characterized by a subsequent development of behavioral symptoms, such as tremor, head bobbing, and myoclonic movements of the forelimbs progressing to recurrent myoclonic convulsions with rearing, salivation, falling, and status epilepticus (Łuszczki et al. [2008]; Turski [2000]).

V. harveyi BB7XM [8] = test: Vibrio harveyi mutagenicity assay, BB7XM strain; conditions: 40 ng/ml; for Mutagenicity BB7XM M.I. (mutagenic index): positive assay when M.I. ≥ 2
Procedure: as §1, §2

mice [9] = test: Hot plate test; format: in vivo, mouse; conditions: dose 30 mg/kg i.p.; for latency time to pain reaction: mean ± SEM, vehicle 27.51 ± 1.36 s, cutoff 60 s
Procedure: as §4, §5
In the hot plate test, the mice were i.p. pretreated either with the test compound or vehicle before placing the animal on the hot plate apparatus (Panlab/Harvard Apparatus, Spain). This apparatus has an electrically heated surface and is supplied with a temperature controller that maintains the temperature at 55–56 °C. The time to the first reaction (licking or jumping) of mice to a nociceptive stimulus was recorded. The cutoff time was established to 60 s to avoid paw tissue damage (Sałat et al. [2014]).

[10] = tested on: L-type calcium channel (dihydropyridine site); test: L-type Ca channel (dihydropyridine site) [3H]nitrendipine binding assay; conditions: rat cerebral cortex
[11] = dose 30 mg/kg i.p., 30-min session
[12] = dose 30 mg/kg i.p., 4 h before the test, value with 95 % confidence interval
[13] = dose 100 mg/kg i.p., 4 h before pilocarpine 400 mg/kg
[14] = dose 100 mg/kg i.p., 4 h before pilocarpine

| Molecule | Mutagenicity BB7 number of revertants Mean ± SD (V. harveyi BB7 [1]) | Mutagenicity BB7 M.I. (mutagenic index) (V. harveyi BB7 [1]) | inhibition of NQNO-induced mutagenicity in BB7 strain (in words) (V. harveyi BB7 [2]) | Antimutagenicity BB7 number of revertants Mean ± SD (V. harveyi BB7 [2]) | Antimutagenicity BB7 Inhib. (%) of mutagenicity (V. harveyi BB7 [2]) | Antimutagenicity BB7XM number of revertants Mean ± SD (V. harveyi BB7XM [3]) | Antimutagenicity BB7XM Inhib. (%) of mutagenicity (V. harveyi BB7XM [3]) | influence on locomotor activity (number of crossings, in words) (mice [4]; [11]) | CS50 (mA) (CI) (mice [5]; [12]) | reduction of the duration of the licking response, first (neurogenic) phase (mice [6]) | antinociceptive effect (reduction of licking response), second (late) phase (mice [6]) | Latency to status epilepticus (s) ± SEM (mice [7]; [13]) | Mutagenicity BB7XM number of revertants Mean ± SD (V. harveyi BB7XM [8]) | Mutagenicity BB7XM M.I. (mutagenic index) (V. harveyi BB7XM [8]) | latency time to pain reaction (mice [9]) | Anticonvulsant effect (%) (prolongation of latency time to seizures vs vehicle) (mice [7]; [14]) | prolongation of latency time to pain reaction vs vehicle (mice [9]) | further results |
| --- | --- | --- | --- | --- | --- | --- | --- | --- | --- | --- | --- | --- | --- | --- | --- | --- | --- | --- |
| CC1CC(=O)N(CN2CCN(c3cccc(C(F)(F)F)c3)CC2)C1=O (stereo not shown) [Compound 13, N-[{4-(3-trifluoromethylphenyl)-piperazin-1-yl}-methyl]-3-methylpyrrolidine-2,5-dione] | 22 ± 3 | 1.4 | moderate inhibitors | 25 ± 4 | (35) % | 20 ± 4 | (16) % | significantly reduced the number of crossings | 9.37 (5.47–16.07)* mA | 79% | 89% | 296.7 ± 9.63 s | 20 ± 5 | 1.7 | 56.03 ± 1.75 s | – | – | – |
| O=C1CCC(=O)N1CN1CCN(c2cccc(C(F)(F)F)c2)CC1 [Compound 24, N-[{4-(3-trifluoromethylphenyl)-piperazin-1-yl}-methyl]-pyrrolidine-2,5-dione] | 25 ± 4 | 1.6 | weakly suppressed | 31 ± 5 | (18) % | 29 ± 3 | (0) % | significantly reduced the number of crossings | 14.01 (9.05–21.70)*** mA | 62% | 94% | 346.7 ± 25.92 s | 19 ± 1 | 1.6 | 47.23 ± 3.77 s | 1.2% | 72% | increase of electroconvulsive threshold (ECT) vs vehicle (mice [5]; dose 10 mg/kg i.p., 4 h before the test): 68%; CS50 (mA) (CI) (mice [5]; dose 10 mg/kg i.p., 4 h before the test, value with 95 % confidence interval): 11.11 (8.12–15.20)*** mA; increase of electroconvulsive threshold (ECT) vs vehicle (mice [5]; dose 30 mg/kg i.p., 4 h before the test): 114% |
| O=C1NC(=O)C(c2ccccc2)(c2ccccc2)N1 [Phenytoin, reference compound] | – | – | – | – | – | – | – | – | – | – | – | – | – | – | – | – | – | % inhibition of control specific binding ([10]; 10 μM): 6.6%; % inhibition of control specific binding ([10]; 100 μM): 57.8% |
| COC[C@@H](NC(C)=O)C(=O)NCc1ccccc1 [Lacosamide, reference compound] | – | – | – | – | – | – | – | significant decrease of locomotor activity | – | 69% | 90% | – | – | – | – | – | – | CS50 (mA) (CI) (mice [5]; dose 10 mg/kg i.p., 30 min before the test, 10 mg/kg): >25 mA; CS50 (mA) (CI) (mice [5]; dose 10 mg/kg i.p., 30 min before the test, listed as lacosamide, 10 mg/kg): above 25 mA; Anticonvulsant effect (%) (prolongation of latency time to seizures vs vehicle) (mice [7]; dose 30 mg/kg i.p., 30 min before pilocarpine): 12.8%; Latency to status epilepticus (s) ± SEM (mice [7]; dose 30 mg/kg i.p., 30 min before pilocarpine 400 mg/kg): 382.1 ± 22.86 s; Latency to status epilepticus (s) ± SEM (mice [7]; dose 40 mg/kg i.p., 30 min before pilocarpine 400 mg/kg): 507.7 ± 52.11 s; Anticonvulsant effect (%) (prolongation of latency time to seizures vs vehicle) (mice [7]; dose 40 mg/kg i.p., 30 min before pilocarpine, 40 mg/kg): 50% and 49.8%; antinociceptive activity in the hot plate test (in words) (mice [9]): significantly prolonged the latency time |
| N-[{4-(3-methylphenyl)-piperazin-1-yl}-methyl]-3-methylpyrrolidine-2,5-dione [Compound 15] | – | – | – | – | – | – | – | – | 8.11 (7.12–9.24)*** mA | 52% | 66% | 406.0 ± 59.77 s | – | – | 47.12 ± 6.14 s | 18.5% | 71% | influence on locomotor activity (number of crossings, in words) (mice [4]; mouse, in vivo, ip, 30 mg/kg): significantly reduced the number of crossings |
